Data as given in ChEMBL document CHEMBL2440027, “Further SAR studies on bicyclic basic merbarone analogues as potent antiproliferative agents” (Bioorg Med Chem, 2013).

Tests used:
Format in all cases: functional
[1] = test system: SN12C; test: Growth inhibition of human SN12C cells assessed as cell growth at 10 uM after 48 hrs by sulforhodamine B assay relative to control; settings: read-out: Activity
[2] = test system: CCRF-CEM; test: Growth inhibition of human CCRF-CEM cells assessed as cell growth at 10 uM after 48 hrs by sulforhodamine B assay relative to control; settings: read-out: Activity
[3] = test system: NCI-H522; test: Growth inhibition of human NCI-H522 cells after 48 hrs by sulforhodamine B assay; settings: NCI-H522, 48 h
[4] = test system: SK-MEL-5; test: Growth inhibition of human SK-MEL-5 cells after 48 hrs by sulforhodamine B assay; settings: SK-MEL-5, 48 h
[5] = test system: HL-60(TB); test: Growth inhibition of human HL-60(TB) cells after 48 hrs by sulforhodamine B assay; settings: HL-60, 48 h
[6] = test system: 786-0; test: Growth inhibition of human 786-0 cells after 48 hrs by sulforhodamine B assay; settings: 786-0, 48 h
[7] = test system: SR; test: Growth inhibition of human SR cells after 48 hrs by sulforhodamine B assay
[8] = test system: T47D; test: Growth inhibition of human T47D cells after 48 hrs by sulforhodamine B assay
[9] = test system: OVCAR-5; test: Growth inhibition of human OVCAR5 cells assessed as cell growth at 10 uM after 48 hrs by sulforhodamine B assay relative to control; settings: OVCAR-5, 48 h, read-out: Activity
[10] = test system: SK-OV-3; test: Growth inhibition of human SKOV3 cells after 48 hrs by sulforhodamine B assay; settings: SK-OV-3, 48 h
[11] = test system: MDA-MB-435; test: Growth inhibition of human MDA-MB-435 cells assessed as cell growth at 10 uM after 48 hrs by sulforhodamine B assay relative to control; settings: MDA-MB-435, 48 h, read-out: Activity
[12] = test system: MDA-MB-435; test: Growth inhibition of human MDA-MB-435 cells after 48 hrs by sulforhodamine B assay; settings: MDA-MB-435, 48 h
[13] = test system: T47D; test: Growth inhibition of human T47D cells assessed as cell growth at 10 uM after 48 hrs by sulforhodamine B assay relative to control; settings: read-out: Activity
[14] = test system: SW-620; test: Growth inhibition of human SW620 cells assessed as cell growth at 10 uM after 48 hrs by sulforhodamine B assay relative to control; settings: SW-620, 48 h, read-out: Activity
[15] = test system: UO-31; test: Growth inhibition of human UO31 cells after 48 hrs by sulforhodamine B assay; settings: UO-31, 48 h
[16] = test system: CCRF-CEM; test: Growth inhibition of human CCRF-CEM cells after 48 hrs by sulforhodamine B assay
[17] = test system: SF-268; test: Growth inhibition of human SF268 cells assessed as cell growth at 10 uM after 48 hrs by sulforhodamine B assay relative to control; settings: SF-268, 48 h, read-out: Activity
[18] = Growth inhibition of human HCC2998 cells after 48 hrs by sulforhodamine B assay; settings: HCC 2998, 48 h
[19] = test system: HCT-116; test: Growth inhibition of human HCT116 cells after 48 hrs by sulforhodamine B assay; settings: HCT-116, 48 h
[20] = test system: IGROV-1; test: Growth inhibition of human IGROV1 cells assessed as cell growth at 10 uM after 48 hrs by sulforhodamine B assay relative to control; settings: IGROV-1, 48 h, read-out: Activity
[21] = test system: SF-295; test: Growth inhibition of human SF295 cells after 48 hrs by sulforhodamine B assay; settings: SF-295, 48 h
[22] = Growth inhibition of human EKVX cells assessed as cell growth at 10 uM after 48 hrs by sulforhodamine B assay relative to control; settings: read-out: Activity
[23] = test system: NCI-H522; test: Growth inhibition of human NCI-H522 cells assessed as cell growth at 10 uM after 48 hrs by sulforhodamine B assay relative to control; settings: NCI-H522, 48 h, read-out: Activity
[24] = test system: IGROV-1; test: Growth inhibition of human IGROV1 cells after 48 hrs by sulforhodamine B assay; settings: IGROV-1, 48 h
[25] = test system: NCI-H322M; test: Growth inhibition of human NCI-H322M cells assessed as cell growth at 10 uM after 48 hrs by sulforhodamine B assay relative to control; settings: read-out: Activity
[26] = test system: SNB-75; test: Growth inhibition of human SNB75 cells assessed as cell growth at 10 uM after 48 hrs by sulforhodamine B assay relative to control; settings: SNB-75, 48 h, read-out: Activity
[27] = test system: SNB-19; test: Growth inhibition of human SNB19 cells assessed as cell growth at 10 uM after 48 hrs by sulforhodamine B assay relative to control; settings: SNB-19, 48 h, read-out: Activity
[28] = test system: HT-29; test: Growth inhibition of human HT-29 cells after 48 hrs by sulforhodamine B assay; settings: HT-29, 48 h
[29] = test system: 786-0; test: Growth inhibition of human 786-0 cells assessed as cell growth at 10 uM after 48 hrs by sulforhodamine B assay relative to control; settings: 786-0, 48 h, read-out: Activity
[30] = test system: COLO 205; test: Growth inhibition of human COLO205 cells assessed as cell growth at 10 uM after 48 hrs by sulforhodamine B assay relative to control; settings: COLO 205, 48 h, read-out: Activity
[31] = test system: RPMI-8226; test: Growth inhibition of human RPMI8226 cells after 48 hrs by sulforhodamine B assay; settings: RPMI-8226, 48 h
[32] = test system: ACHN; test: Growth inhibition of human ACHN cells assessed as cell growth at 10 uM after 48 hrs by sulforhodamine B assay relative to control; settings: read-out: Activity
[33] = test system: A549; test: Growth inhibition of human A549/ATCC cells assessed as cell growth at 10 uM after 48 hrs by sulforhodamine B assay relative to control; settings: A549, 48 h, read-out: Activity
[34] = test system: K562; test: Growth inhibition of human K562 cells after 48 hrs by sulforhodamine B assay; settings: K562, 48 h
[35] = read-out: LC50 (the source's name)

With CCCCN(CCCC)CCCNc1nc2c(c(=N)n1-c1ccccc1)c(=S)n(-c1ccccc1)c(=S)n2-c1ccccc1 the growth at 10 µM [1] was -99.2%, the growth at 10 µM [2] was -78.4% and the GI50 [3] was 200 nM. For the same compound, the TGI [3] was 1300 nM, the CC50 [3, 35] was 5100 nM and the GI50 [4] was 900 nM. The LC50 [4] was 4600 nM, the TGI [4] was 2100 nM and the GI50 [5] was 200 nM. For the same compound, the GI50 [6] was 200 nM, the LC50 [6] was 800 nM and the TGI [6] was 400 nM. For the same compound, the GI50 [7] was 300 nM, the LC50 [7] was 7000 nM and the TGI [7] was 1500 nM. It also gave a GI50 [8] of 200 nM, an LC50 [8] of 8300 nM and a TGI [8] of 500 nM. It also gave a growth at 10 µM [9] of -60.2%, a GI50 [10] of 1500 nM and a TGI [10] of 2900 nM. The CC50 [10, 35] was 5800 nM, the growth at 10 µM [11] was -100% and the GI50 [12] was 200 nM. The TGI [12] was 500 nM, the CC50 [12, 35] was 1500 nM and the growth at 10 µM [13] was -62.1%. For the same compound, the growth at 10 µM [14] was -100%, the GI50 [15] was 200 nM and the LC50 [15] was 1100 nM. It also gave a TGI [15] of 500 nM, a GI50 [16] of 100 nM and an LC50 [16] of 600 nM. The TGI [16] was 300 nM, the growth at 10 µM [17] was -94% and the GI50 [18] was 400 nM. The LC50 [18] was 4700 nM, the TGI [18] was 1800 nM and the GI50 [19] was 300 nM. It also gave a TGI [19] of 1100 nM, a CC50 [19, 35] of 3400 nM and a growth at 10 µM [20] of -70.9%. It also gave a GI50 [21] of 1200 nM, a TGI [21] of 2700 nM and a CC50 [21, 35] of 5800 nM. For the same compound, the growth at 10 µM [22] was -74.2%, the growth at 10 µM [23] was -54.8% and the GI50 [24] was 1900 nM. For the same compound, the TGI [24] was 3800 nM, the CC50 [24, 35] was 7500 nM and the growth at 10 µM [25] was -57.8%. For the same compound, the growth at 10 µM [26] was -94.2%, the growth at 10 µM [27] was -87.4% and the GI50 [28] was 200 nM. For the same compound, the TGI [28] was 500 nM, the CC50 [28, 35] was 1800 nM and the growth at 10 µM [29] was -100%. For the same compound, the growth at 10 µM [30] was -74.1%, the GI50 [31] was 200 nM and the TGI [31] was 300 nM. For the same compound, the CC50 [31, 35] was 700 nM, the growth at 10 µM [32] was -95.8% and the growth at 10 µM [33] was -38.4%. For the same compound, the GI50 [34] was 200 nM.
